Results from ChEMBL document CHEMBL3044783, “Effects of pyrrolizidine alkaloids on the performance of plant-parasitic and free-living nematodes” (Pest Manag Sci, 2009).
In brackets after ≈: the same amount, converted by molar mass. Activity calls are given as the source filed them. The calls are words filed in the database; no cut-off is given here.

Columns and labels:
[1] = tested on: Rhabditis sp.; experiment: Repellent activity against juvenile stage of Rhabditis sp. at 0.1 mg/mL after 20 hr by stereomicroscopic analysis (reference value: 48%); type: functional
[2] = tested on: Rhabditis sp.; experiment: Repellent activity against juvenile stage of Rhabditis sp. at 1 mg/mL after 20 hr by stereomicroscopic analysis (reference value: 48%); type: functional
[3] = tested on: Phasmarhabditis hermaphrodita; experiment: Nematicidal activity against juvenile stage of Phasmarhabditis hermaphrodita of assessed as inhibition of mobility incubated for 168 hr followed by compound wash out measured after 24 hr; type: functional; details: Pellioditis hermaphrodita
[4] = tested on: Pratylenchus penetrans; experiment: Nematicidal activity against juvenile stage of Pratylenchus penetrans assessed as inhibition of mobility incubated for 168 hr followed by compound wash out measured after 24 hr; type: functional
[5] = tested on: Heterodera schachtii; experiment: Nematicidal activity against juvenile stage of Heterodera schachtii assessed as inhibition of mobility incubated for 168 hr followed by compound wash out measured after 24 hr; type: functional
[6] = tested on: Meloidogyne incognita; experiment: Nematicidal activity against juvenile stage of Meloidogyne incognita (root-knot nematode) assessed as inhibition of mobility incubated for 168 hr followed by compound wash out measured after 24 hr; type: functional
[7] = Stability of the compound assessed as conversion of N-oxide to free base at 5 mg/mL after 24 to 168 hr by thin layer chromatographic analysis under UV light and cold temperature; type: physicochemical
[8] = tested on: Meloidogyne incognita; experiment: Ovicidal activity against Meloidogyne incognita (root-knot nematode) assessed as egg hatching at 1 mg/mL after 336 hr (reference value: 54%); type: functional
[9] = tested on: Meloidogyne incognita; experiment: Ovicidal activity against Meloidogyne incognita (root-knot nematode) assessed as egg hatching at 1 mg/mL after 24 hr (reference value: 3%); type: functional
[10] = tested on: Meloidogyne incognita; experiment: Repellent activity against juvenile stage of Meloidogyne incognita (root-knot nematode) at 0.1 mg/mL after 40 hr by stereomicroscopic analysis (reference value: 51%); type: functional
[11] = tested on: Meloidogyne incognita; experiment: Repellent activity against juvenile stage of Meloidogyne incognita (root-knot nematode) at 1 mg/mL after 40 hr by stereomicroscopic analysis (reference value: 51%); type: functional
[12] = tested on: Meloidogyne incognita; experiment: Repellent activity against juvenile stage of Meloidogyne incognita (root-knot nematode) at 0.1 mg/mL after 20 hr by stereomicroscopic analysis (reference value: 50%); type: functional
[13] = tested on: Meloidogyne incognita; experiment: Repellent activity against juvenile stage of Meloidogyne incognita (root-knot nematode) at 1 mg/mL after 20 hr by stereomicroscopic analysis (reference value: 50%); type: functional
[14] = tested on: Rhabditis sp.; experiment: Repellent activity against juvenile stage of Rhabditis sp. at 0.1 mg/mL after 40 hr by stereomicroscopic analysis (reference value: 50%); type: functional
[15] = tested on: Rhabditis sp.; experiment: Repellent activity against juvenile stage of Rhabditis sp. at 1 mg/mL after 40 hr by stereomicroscopic analysis (reference value: 50%); type: functional
[16] = Stability of the compound assessed as apperance of pyrroles at 5 mg/mL after 24 to 168 hr by thin layer chromatographic analysis under hot temperature; type: physicochemical
[17] = Stability of the compound assessed as apperance of pyrroles at 5 mg/mL after 24 to 168 hr by thin layer chromatographic analysis under UV light and cold temperature; type: physicochemical
[18] = Stability of the compound assessed as apperance of pyrroles at 5 mg/mL after 24 to 168 hr by thin layer chromatographic analysis under UV light and hot temperature; type: physicochemical
[19] = Stability of the compound assessed as apperance of new pyrrolizidine alkaloids at 5 mg/mL after 24 to 168 hr by thin layer chromatographic analysis under cold temperature; type: physicochemical
[20] = Stability of the compound assessed as apperance of new pyrrolizidine alkaloids at 5 mg/mL after 24 to 168 hr by thin layer chromatographic analysis under hot temperature; type: physicochemical
[21] = Stability of the compound assessed as apperance of new pyrrolizidine alkaloids at 5 mg/mL after 24 to 168 hr by thin layer chromatographic analysis under UV light and cold temperature; type: physicochemical
[22] = Stability of the compound assessed as apperance of new pyrrolizidine alkaloids at 5 mg/mL after 24 to 168 hr by thin layer chromatographic analysis under UV light and hot temperature; type: physicochemical
[23] = Stability of the compound assessed as conversion of N-oxide to free base at 5 mg/mL after 24 to 168 hr by thin layer chromatographic analysis under cold temperature; type: physicochemical
[24] = Stability of the compound assessed as conversion of N-oxide to free base at 5 mg/mL after 24 to 168 hr by thin layer chromatographic analysis under hot temperature; type: physicochemical
[25] = Stability of the compound assessed as conversion of N-oxide to free base at 5 mg/mL after 24 to 168 hr by thin layer chromatographic analysis under UV light and hot temperature; type: physicochemical
[26] = Stability of the compound assessed as apperance of pyrroles at 5 mg/mL after 24 to 168 hr by thin layer chromatographic analysis under cold temperature; type: physicochemical
[27] = tested on: Rhabditis sp.; experiment: Nematicidal activity against juvenile stage of Rhabditis sp. assessed as inhibition of mobility after 168 hr; type: functional
[28] = tested on: Phasmarhabditis hermaphrodita; experiment: Nematicidal activity against juvenile stage of Phasmarhabditis hermaphrodita of assessed as inhibition of mobility after 168 hr; type: functional; details: Pellioditis hermaphrodita
[29] = tested on: Pratylenchus penetrans; experiment: Nematicidal activity against juvenile stage of Pratylenchus penetrans assessed as inhibition of mobility after 168 hr; type: functional
[30] = tested on: Meloidogyne incognita; experiment: Nematicidal activity against juvenile stage of Meloidogyne incognita (root-knot nematode) assessed as inhibition of mobility after 168 hr; type: functional
[31] = tested on: Heterodera schachtii; experiment: Nematicidal activity against juvenile stage of Heterodera schachtii assessed as inhibition of mobility after 168 hr; type: functional
[32] = tested on: Phasmarhabditis hermaphrodita; experiment: Nematicidal activity against juvenile stage of Phasmarhabditis hermaphrodita of assessed as inhibition of mobility after 20 hr; type: functional, organism-based
[33] = tested on: Rhabditis sp.; experiment: Nematicidal activity against juvenile stage of Rhabditis sp. assessed as inhibition of mobility after 20 hr; type: functional, organism-based
[34] = tested on: Pratylenchus penetrans; experiment: Nematicidal activity against juvenile stage of Pratylenchus penetrans assessed as inhibition of mobility after 20 hr; type: functional
[35] = tested on: Meloidogyne incognita; experiment: Nematicidal activity against juvenile stage of Meloidogyne incognita (root-knot nematode) assessed as inhibition of mobility after 20 hr; type: functional
[36] = tested on: Heterodera schachtii; experiment: Nematicidal activity against juvenile stage of Heterodera schachtii assessed as inhibition of mobility after 20 hr; type: functional

`C[C@H]1C(=O)O[C@@H]2CC[N+]3([O-])CC=C(COC(=O)[C@](C)(O)[C@]1(C)O)[C@H]23` (stereo partly specified) [MONOCROTALINE N-OXIDE] gave a Repellency [1] of 89%, a Repellency [2] of 95% and an MIC50 [3] of 17.5 mg/mL (≈ 51.3 mM). The MIC50 [4] was “inactive”, the MIC50 [5] was 37.1 mg/mL (≈ 109 mM) and the MIC50 [6] was “inactive”. For the same compound, the Stability [7] was “Stable”, the Activity [8] was 16% and the Activity [9] was 7%. For the same compound, the Repellency [10] was 51%, the Repellency [11] was 56% and the Repellency [12] was 52%. It also gave a Repellency [13] of 54%, a Repellency [14] of 90% and a Repellency [15] of 100%. For the same compound, the Stability [16] was “Stable”, the Stability [17] was “Stable” and the Stability [18] was “Stable”. For the same compound, the Stability [19] was “Stable”, the Stability [20] was “Stable” and the Stability [21] was “Stable”. The Stability [22] was “Stable”, the Stability [23] was “Stable” and the Stability [24] was “Stable”. For the same compound, the Stability [25] was “Stable”, the Stability [26] was “Stable” and the MIC50 [27] was 21.2 mg/mL (≈ 62.1 mM). For the same compound, the MIC50 [28] was 13.7 mg/mL (≈ 40.1 mM), the MIC50 [29] was “inactive” and the MIC50 [30] was “inactive”. For the same compound, the MIC50 [31] was 0.7 mg/mL (≈ 2.05 mM), the MIC50 [32] was “inactive” and the MIC50 [33] was “inactive”. The MIC50 [34] was “inactive”, the MIC50 [35] was “inactive” and the MIC50 [36] was “inactive”.
